Assay results reported in ChEMBL document CHEMBL4196117, “PK/PD Disconnect Observed with a Reversible Endothelial Lipase Inhibitor” (ACS Med Chem Lett, 2018).

How the values were obtained:
[1] = Drug level in CD1 mouse at 1 mg/kg, po administered as bolus dose measured after 24 hrs; assay type: ADME, organism-based; details: in vivo, read-out: Drug uptake
[2] = target: T1, Endothelial lipase (Homo sapiens, UniProt Q9Y5X9); assay: Inhibition of endothelial lipase in human HT1080 cells using HDL as substrate pretreated for 10 mins followed by substrate addition and measured after 30 mins by LC/MS/MS analysis; assay type: cell-based
T1 sequence (Q9Y5X9 whole entry): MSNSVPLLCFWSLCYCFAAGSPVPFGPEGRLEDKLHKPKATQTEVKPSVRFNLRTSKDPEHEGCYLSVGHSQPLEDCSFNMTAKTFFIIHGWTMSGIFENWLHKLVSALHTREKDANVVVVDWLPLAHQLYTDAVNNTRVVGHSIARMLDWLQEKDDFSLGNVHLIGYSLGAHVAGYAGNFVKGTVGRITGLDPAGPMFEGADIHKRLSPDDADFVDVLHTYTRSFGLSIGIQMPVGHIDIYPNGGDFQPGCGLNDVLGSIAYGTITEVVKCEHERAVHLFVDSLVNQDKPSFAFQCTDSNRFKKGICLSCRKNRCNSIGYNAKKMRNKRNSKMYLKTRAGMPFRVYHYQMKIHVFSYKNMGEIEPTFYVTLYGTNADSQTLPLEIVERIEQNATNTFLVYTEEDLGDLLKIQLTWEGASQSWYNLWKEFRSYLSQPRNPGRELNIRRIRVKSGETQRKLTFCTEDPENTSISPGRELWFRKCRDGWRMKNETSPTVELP

[3] = target: T1, Endothelial lipase; assay: Inhibition of endothelial lipase in human HT1080 cells using PED-A1 containing DMPG vesicles as substrate pretreated for 20 mins followed by substrate addition and measured every 20 secs for 10 mins by fluorescence assay; assay type: cell-based
[4] = test system: Hamster; assay: fCmax in hamster at 50 mg/kg, po qd for 7 days measured 6 hrs post dose on day 5; assay type: ADME, organism-based; details: cricetinae, in vivo
[5] = test system: Mus musculus; assay: Ratio of total AUC in CD1 mouse at 50 mg/kg, po administered as bolus dose to total AUC in CD1 mouse at 1 mg/kg, po administered as bolus dose; assay type: ADME, organism-based; details: in vivo
[6] = Protein binding in CD1 mouse plasma assessed as unbound fraction at 1 mg/kg, po administered as bolus dose; assay type: ADME, organism-based
[7] = test system: Mus musculus; assay: fCmax in C57BL/6J mouse at 50 mg/kg, po administered once daily for 5 days measured 6 hrs post last dose; assay type: ADME, organism-based; details: in vivo
[8] = Half life in CD1 mouse at 1 mg/kg, iv administered as bolus dose; assay type: ADME, organism-based; details: in vivo
[9] = test system: Mus musculus; assay: fCmin in C57BL/6J mouse at 50 mg/kg, po administered once daily for 5 days measured 24 hrs post last dose; assay type: ADME, organism-based; details: in vivo
[10] = test system: Mus musculus; assay: Free drug level in CD1 mouse at 1 mg/kg, po administered as bolus dose measured after 24 hrs; assay type: ADME, organism-based; details: in vivo
[11] = Tmax in CD1 mouse at 1 mg/kg, iv administered as bolus dose; assay type: ADME, organism-based; details: in vivo
[12] = Half life in CD1 mouse at 1 mg/kg, po administered as bolus dose; assay type: ADME, organism-based; details: in vivo
[13] = test system: Mus musculus; assay: Ratio of total AUC in CD1 mouse at 10 mg/kg, po administered as bolus dose to total AUC in CD1 mouse at 1 mg/kg, po administered as bolus dose; assay type: ADME, organism-based; details: in vivo
[14] = Cmax in CD1 mouse at 1 mg/kg, iv administered as bolus dose; assay type: ADME, organism-based; set-up: dose 1 mg/kg, route intravenous; details: in vivo
[15] = Ratio of fCmax in C57BL/6J mouse to IC50 for recombinant mouse endothelial lipase expressed in HEK293F cells using HDL as substrate; assay type: ADME, cell-based
[16] = Cmax in C57BL/6J mouse at 50 mg/kg, po administered once daily for 5 days measured 6 hrs post last dose; assay type: ADME, organism-based; set-up: dose 50 mg/kg, route oral; details: in vivo
[17] = Tmax in CD1 mouse at 1 mg/kg, po administered as bolus dose; assay type: ADME, organism-based; details: in vivo
[18] = Cmin in C57BL/6J mouse at 50 mg/kg, po administered once daily for 5 days measured 24 hrs post last dose; assay type: ADME, organism-based; details: in vivo, read-out: Cmin
[19] = Cmax in CD1 mouse at 1 mg/kg, po administered as bolus dose; assay type: ADME, organism-based; set-up: dose 1 mg/kg, route oral; details: in vivo
[20] = Total AUC in CD1 mouse at 1 mg/kg, po administered as bolus dose; assay type: ADME, organism-based; set-up: dose 1 mg/kg, route oral, time AUCmax; details: in vivo
[21] = Total AUC in CD1 mouse at 1 mg/kg, iv administered as bolus dose; assay type: ADME, organism-based; set-up: dose 1 mg/kg, time AUCmax, route intravenous; details: in vivo
[22] = Ratio of fCmax in hamster to IC50 for recombinant mouse endothelial lipase expressed in HEK293F cells using HDL as substrate; assay type: ADME, cell-based
[23] = Protein binding in hamster plasma at 50 mg/kg, po qd for 7 days measured 6 hrs post dose on day 5; assay type: ADME, organism-based; details: cricetinae, read-out: PPB (converted)
[24] = Protein binding in CD1 mouse plasma at 1 mg/kg, po administered as bolus dose; assay type: ADME, organism-based; details: read-out: PPB (converted)
[25] = Ratio of fCmin in C57BL/6J mouse to IC50 for recombinant mouse endothelial lipase expressed in HEK293F cells using HDL as substrate; assay type: ADME, cell-based
[26] = Oral bioavailability in CD1 mouse at 1 mg/kg administered as bolus dose; assay type: ADME, organism-based; details: in vivo

In the case of `CCN1CC(C(=O)NC(C)CCc2ccc(Cl)c(Cl)c2)=C(O)C1=O` (stereo in doubt; 7c), the concentration at 24 h [1] is reported as 4.31 µM, the IC50 [2] is reported as 218 nM and the IC50 [3] is reported as 148 nM. The fCmax [4] was 5.1 µM, the “Ratio AUC” value [5] was 18 and the fraction unbound [6] was 0.023. The fCmax [7] was 5.5 µM, the half-life [8] was 13 h and the fCmin [9] was 1.3 µM. The “Drug uptake(free)” value [10] was 99 nM, the Tmax [11] was 3 min and the half-life [12] was 13 h. For the same compound, the “Ratio AUC” value [13] was 7.5, the Cmax [14] was 39 µM and the Ratio [15] was 55. The Cmax [16] was 238 µM, the Tmax [17] was 0.5 h and the concentration at 24 h [18] was 57 µM. It also gave a Cmax [19] of 15 µM, an AUC [20] of 292 µM·h and an AUC [21] of 304 µM·h. It also gave a Ratio [22] of 51, a fraction unbound at 6 h [23] of 0.016 and a fraction unbound [24] of 0.023. For the same compound, the Ratio [25] was 13 and the bioavailability [26] was 96%.
